Results reported in ChEMBL document CHEMBL4229524, “Design, synthesis and preclinical evaluation of 5-methyl-N4-aryl-furo[2,3-d]pyrimidines as single agents with combination chemotherapy potential” (Bioorg Med Chem Lett, 2018).
Values belong to the compound of their own block, whether it stands above or below them. The source made the active and inactive calls. The rule behind the calls is not given here.

Assays:
[1] = test system: UACC-62; assay: Antitumor activity against human UACC62 cells xenografted in sc dosed mouse assessed as reduction in cell viability administered daily for 4 days starting from 3 to 4 days post implantation measured post last dose by MTT based in-vivo hollow fiber assay; format: functional, organism-based
[2] = test system: Homo sapiens; assay: Antitumor activity against human LOX cells xenografted in ip dosed mouse assessed as reduction in cell viability administered daily for 4 days starting from 3 to 4 days post implantation measured post last dose by MTT based in-vivo hollow fiber assay; format: functional, organism-based
[3] = test system: Mus musculus; assay: Toxicity in athymic nude mouse assessed as death at 100 mg/kg, po administered as single dose measured after 4 days; format: organism-based; details: in vivo, 96 h
[4] = test system: NCI-H522; assay: Antitumor activity against human NCI-H522 cells xenografted in athymic nude mouse; format: functional, cell-based
[5] = test system: MDA-MB-231; assay: Antitumor activity against human MDA-MB-231 cells xenografted in sc dosed mouse assessed as reduction in cell viability administered daily for 4 days starting from 3 to 4 days post implantation measured post last dose by MTT based in-vivo hollow fiber assay; format: functional, organism-based
[6] = target: T1, Platelet-derived growth factor receptor beta (Homo sapiens, UniProt P09619); assay: Potency index, ratio of sunitinib IC50 to test compound IC50 for PDGF-BB-induced PDGFRbeta activation in human SH-SY5Y cells; format: cell-based
T1 sequence (P09619 whole entry): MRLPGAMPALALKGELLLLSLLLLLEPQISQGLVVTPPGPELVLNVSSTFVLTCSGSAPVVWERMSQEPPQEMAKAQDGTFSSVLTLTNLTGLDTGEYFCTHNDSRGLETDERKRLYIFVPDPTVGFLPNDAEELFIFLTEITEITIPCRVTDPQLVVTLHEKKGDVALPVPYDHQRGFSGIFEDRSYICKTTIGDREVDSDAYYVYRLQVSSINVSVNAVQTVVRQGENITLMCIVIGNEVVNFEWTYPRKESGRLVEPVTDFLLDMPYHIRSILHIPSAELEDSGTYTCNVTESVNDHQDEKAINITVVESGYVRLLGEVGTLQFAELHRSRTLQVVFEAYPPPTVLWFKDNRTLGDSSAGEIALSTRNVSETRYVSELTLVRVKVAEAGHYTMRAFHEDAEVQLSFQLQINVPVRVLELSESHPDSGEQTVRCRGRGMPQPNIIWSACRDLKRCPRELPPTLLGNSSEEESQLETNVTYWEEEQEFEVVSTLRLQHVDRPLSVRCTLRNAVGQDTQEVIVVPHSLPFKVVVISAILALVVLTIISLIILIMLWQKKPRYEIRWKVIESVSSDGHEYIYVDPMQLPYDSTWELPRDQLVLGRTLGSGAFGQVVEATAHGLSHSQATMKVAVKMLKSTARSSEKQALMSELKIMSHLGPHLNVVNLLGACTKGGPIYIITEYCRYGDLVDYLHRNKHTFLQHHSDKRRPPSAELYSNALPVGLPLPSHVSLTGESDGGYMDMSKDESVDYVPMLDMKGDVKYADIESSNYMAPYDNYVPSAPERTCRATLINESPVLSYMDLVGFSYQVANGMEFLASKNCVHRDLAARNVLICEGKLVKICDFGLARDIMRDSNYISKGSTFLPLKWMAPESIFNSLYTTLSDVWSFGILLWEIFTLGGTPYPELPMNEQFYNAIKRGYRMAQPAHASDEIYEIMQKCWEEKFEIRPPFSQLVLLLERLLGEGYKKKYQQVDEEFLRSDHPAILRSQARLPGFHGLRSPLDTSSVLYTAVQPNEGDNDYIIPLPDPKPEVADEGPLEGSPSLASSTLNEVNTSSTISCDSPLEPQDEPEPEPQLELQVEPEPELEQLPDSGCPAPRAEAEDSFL

[7] = test system: Mus musculus; assay: Toxicity in athymic nude mouse xenografted with human A498 cells assessed as body weight at 25 mg/kg, ip q3d for 19 days measured post last dose relative to control; format: organism-based; details: in vivo, 456 h
[8] = test system: OVCAR-3; assay: Antitumor activity against human OVCAR3 cells xenografted in sc dosed mouse assessed as reduction in cell viability administered daily for 4 days starting from 3 to 4 days post implantation measured post last dose by MTT based in-vivo hollow fiber assay; format: functional, organism-based
[9] = test system: NCI-H522; assay: Antitumor activity against human NCI-H522 cells xenografted in ip dosed mouse assessed as reduction in cell viability administered daily for 4 days starting from 3 to 4 days post implantation measured post last dose by MTT based in-vivo hollow fiber assay; format: functional, organism-based
[10] = test system: NCI-H23; assay: Antitumor activity against human NCI-H23 cells xenografted in ip dosed mouse assessed as reduction in cell viability administered daily for 4 days starting from 3 to 4 days post implantation measured post last dose by MTT based in-vivo hollow fiber assay; format: functional, organism-based
[11] = test system: COLO 205; assay: Antitumor activity against human COLO205 cells xenografted in sc dosed mouse assessed as reduction in cell viability administered daily for 4 days starting from 3 to 4 days post implantation measured post last dose by MTT based in-vivo hollow fiber assay; format: functional, organism-based
[12] = test system: A498; assay: Antitumor activity against human A498 cells xenografted in athymic nude mouse assessed as reduction in tumor volume at 25 mg/kg, ip q2d for 19 days measured post last dose up to 40 days; format: functional; design: scale not given: the % may be the effect or the level left
[13] = test system: MDA-MB-435; assay: Antitumor activity against human MDA-MB-435 cells xenografted in ip dosed mouse assessed as reduction in cell viability administered daily for 4 days starting from 3 to 4 days post implantation measured post last dose by MTT based in-vivo hollow fiber assay; format: functional, organism-based
[14] = test system: Mus musculus; assay: Toxicity in athymic nude mouse assessed as death at 250 to 500 mg/kg, po administered as single dose measured after 1 day; format: organism-based; details: in vivo, 24 h
[15] = test system: Mus musculus; assay: Toxicity in athymic nude mouse xenografted with human A498 cells assessed as body weight at 25 mg/kg, ip qd for 19 days measured post last dose relative to control; format: organism-based; details: in vivo, 456 h
[16] = test system: U-251; assay: Antitumor activity against human U251 cells xenografted in ip dosed mouse assessed as reduction in cell viability administered daily for 4 days starting from 3 to 4 days post implantation measured post last dose by MTT based in-vivo hollow fiber assay; format: functional, organism-based
[17] = test system: U-251; assay: Antitumor activity against human U251 cells xenografted in sc dosed mouse assessed as reduction in cell viability administered daily for 4 days starting from 3 to 4 days post implantation measured post last dose by MTT based in-vivo hollow fiber assay; format: functional, organism-based
[18] = test system: Homo sapiens; assay: Antitumor activity against human LOX cells xenografted in sc dosed mouse assessed as reduction in cell viability administered daily for 4 days starting from 3 to 4 days post implantation measured post last dose by MTT based in-vivo hollow fiber assay; format: functional, organism-based
[19] = target: Epidermal growth factor receptor (Homo sapiens, UniProt P00533); format: cell-based
Chain of Epidermal growth factor receptor (P00533 whole entry): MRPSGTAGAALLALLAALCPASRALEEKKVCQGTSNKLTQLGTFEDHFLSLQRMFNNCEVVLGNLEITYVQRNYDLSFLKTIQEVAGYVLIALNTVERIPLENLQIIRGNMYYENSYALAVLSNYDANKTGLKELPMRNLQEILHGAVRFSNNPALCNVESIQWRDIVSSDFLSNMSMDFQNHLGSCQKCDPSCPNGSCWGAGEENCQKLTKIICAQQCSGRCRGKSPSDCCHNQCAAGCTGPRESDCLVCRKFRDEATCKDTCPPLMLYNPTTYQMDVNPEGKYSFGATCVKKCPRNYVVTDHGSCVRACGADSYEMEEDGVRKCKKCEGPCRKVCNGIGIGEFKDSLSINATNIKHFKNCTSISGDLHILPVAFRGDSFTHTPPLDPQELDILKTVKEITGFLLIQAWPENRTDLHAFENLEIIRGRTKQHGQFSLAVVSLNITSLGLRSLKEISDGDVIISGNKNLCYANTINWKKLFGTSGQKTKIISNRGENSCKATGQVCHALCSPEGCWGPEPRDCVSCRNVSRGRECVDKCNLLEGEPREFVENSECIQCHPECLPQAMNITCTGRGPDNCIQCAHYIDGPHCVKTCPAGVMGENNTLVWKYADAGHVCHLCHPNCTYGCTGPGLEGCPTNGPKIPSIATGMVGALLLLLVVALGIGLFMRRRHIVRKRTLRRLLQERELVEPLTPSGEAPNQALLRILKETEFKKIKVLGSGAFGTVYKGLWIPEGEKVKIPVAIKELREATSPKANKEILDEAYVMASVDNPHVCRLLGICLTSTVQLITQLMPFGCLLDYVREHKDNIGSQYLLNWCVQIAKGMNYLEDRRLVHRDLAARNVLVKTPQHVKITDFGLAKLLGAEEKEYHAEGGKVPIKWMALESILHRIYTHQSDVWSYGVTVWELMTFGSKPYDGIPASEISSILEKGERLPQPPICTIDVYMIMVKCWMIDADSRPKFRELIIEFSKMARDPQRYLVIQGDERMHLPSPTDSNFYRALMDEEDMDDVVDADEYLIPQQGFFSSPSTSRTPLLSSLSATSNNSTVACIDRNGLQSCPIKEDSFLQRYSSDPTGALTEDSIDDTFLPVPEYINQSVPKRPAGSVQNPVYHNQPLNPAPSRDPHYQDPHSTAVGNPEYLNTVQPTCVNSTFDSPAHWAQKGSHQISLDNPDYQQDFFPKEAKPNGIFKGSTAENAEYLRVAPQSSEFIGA

[20] = test system: SF-295; assay: Antitumor activity against human SF295 cells xenografted in ip dosed mouse assessed as reduction in cell viability administered daily for 4 days starting from 3 to 4 days post implantation measured post last dose by MTT based in-vivo hollow fiber assay; format: functional, organism-based
[21] = test system: Mus musculus; assay: Toxicity in athymic nude mouse assessed as survival at 12.5 to 50 mg/kg, po administered as single dose; format: organism-based; details: in vivo
[22] = test system: SF-295; assay: Antitumor activity against human SF295 cells xenografted in sc dosed mouse assessed as reduction in cell viability administered daily for 4 days starting from 3 to 4 days post implantation measured post last dose by MTT based in-vivo hollow fiber assay; format: functional, organism-based
[23] = test system: A498; assay: Antitumor activity against human A498 cells xenografted in athymic nude mouse assessed as reduction in tumor volume at 25 mg/kg, ip qd for 19 days measured post last dose up to 40 days; format: functional; design: scale not given: the % may be the effect or the level left
[24] = test system: COLO 205; assay: Antitumor activity against human COLO205 cells xenografted in ip dosed mouse assessed as reduction in cell viability administered daily for 4 days starting from 3 to 4 days post implantation measured post last dose by MTT based in-vivo hollow fiber assay; format: functional, organism-based
[25] = target: T1, Platelet-derived growth factor receptor beta; assay: Inhibition of PDGF-BB-induced PDGFRbeta activation in human SH-SY5Y cells pretreated for 60 mins followed by PDGF-BB addition and measured after 10 mins by ELISA; format: cell-based
[26] = test system: A498; assay: Antitumor activity against human A498 cells xenografted in athymic nude mouse assessed as reduction in tumor volume at 25 mg/kg, ip q3d for 19 days measured post last dose up to 40 days; format: functional; design: scale not given: the % may be the effect or the level left
[27] = test system: Mus musculus; assay: Toxicity in athymic nude mouse xenografted with human A498 cells assessed as body weight at 25 mg/kg, ip q2d for 19 days measured post last dose relative to control; format: organism-based; details: in vivo, 456 h
[28] = test system: OVCAR-3; assay: Antitumor activity against human OVCAR3 cells xenografted in ip dosed mouse assessed as reduction in cell viability administered daily for 4 days starting from 3 to 4 days post implantation measured post last dose by MTT based in-vivo hollow fiber assay; format: functional, organism-based
[29] = test system: NCI-H23; assay: Antitumor activity against human NCI-H23 cells xenografted in sc dosed mouse assessed as reduction in cell viability administered daily for 4 days starting from 3 to 4 days post implantation measured post last dose by MTT based in-vivo hollow fiber assay; format: functional, organism-based
[30] = test system: OVCAR-5; assay: Antitumor activity against human OVCAR5 cells xenografted in ip dosed mouse assessed as reduction in cell viability administered daily for 4 days starting from 3 to 4 days post implantation measured post last dose by MTT based in-vivo hollow fiber assay; format: functional, organism-based
[31] = test system: SW-620; assay: Antitumor activity against human SW620 cells xenografted in ip dosed mouse assessed as reduction in cell viability administered daily for 4 days starting from 3 to 4 days post implantation measured post last dose by MTT based in-vivo hollow fiber assay; format: functional, organism-based
[32] = test system: OVCAR-5; assay: Antitumor activity against human OVCAR5 cells xenografted in sc dosed mouse assessed as reduction in cell viability administered daily for 4 days starting from 3 to 4 days post implantation measured post last dose by MTT based in-vivo hollow fiber assay; format: functional, organism-based
[33] = test system: MDA-MB-231; assay: Antitumor activity against human MDA-MB-231 cells xenografted in ip dosed mouse assessed as reduction in cell viability administered daily for 4 days starting from 3 to 4 days post implantation measured post last dose by MTT based in-vivo hollow fiber assay; format: functional, organism-based
[34] = test system: MDA-MB-435; assay: Antitumor activity against human MDA-MB-435 cells xenografted in sc dosed mouse assessed as reduction in cell viability administered daily for 4 days starting from 3 to 4 days post implantation measured post last dose by MTT based in-vivo hollow fiber assay; format: functional, organism-based
[35] = test system: COLO 205; assay: Antitumor activity against human COLO205 cells xenografted in athymic nude mouse; format: functional, cell-based
[36] = target: T2, Vascular endothelial growth factor receptor 2 (Homo sapiens, UniProt P35968); assay: Potency index, ratio of sunitinib IC50 to test compound IC50 for VEGF-induced VEGFR2 activation in human U251 cells; format: cell-based
T2 sequence (P35968 whole entry): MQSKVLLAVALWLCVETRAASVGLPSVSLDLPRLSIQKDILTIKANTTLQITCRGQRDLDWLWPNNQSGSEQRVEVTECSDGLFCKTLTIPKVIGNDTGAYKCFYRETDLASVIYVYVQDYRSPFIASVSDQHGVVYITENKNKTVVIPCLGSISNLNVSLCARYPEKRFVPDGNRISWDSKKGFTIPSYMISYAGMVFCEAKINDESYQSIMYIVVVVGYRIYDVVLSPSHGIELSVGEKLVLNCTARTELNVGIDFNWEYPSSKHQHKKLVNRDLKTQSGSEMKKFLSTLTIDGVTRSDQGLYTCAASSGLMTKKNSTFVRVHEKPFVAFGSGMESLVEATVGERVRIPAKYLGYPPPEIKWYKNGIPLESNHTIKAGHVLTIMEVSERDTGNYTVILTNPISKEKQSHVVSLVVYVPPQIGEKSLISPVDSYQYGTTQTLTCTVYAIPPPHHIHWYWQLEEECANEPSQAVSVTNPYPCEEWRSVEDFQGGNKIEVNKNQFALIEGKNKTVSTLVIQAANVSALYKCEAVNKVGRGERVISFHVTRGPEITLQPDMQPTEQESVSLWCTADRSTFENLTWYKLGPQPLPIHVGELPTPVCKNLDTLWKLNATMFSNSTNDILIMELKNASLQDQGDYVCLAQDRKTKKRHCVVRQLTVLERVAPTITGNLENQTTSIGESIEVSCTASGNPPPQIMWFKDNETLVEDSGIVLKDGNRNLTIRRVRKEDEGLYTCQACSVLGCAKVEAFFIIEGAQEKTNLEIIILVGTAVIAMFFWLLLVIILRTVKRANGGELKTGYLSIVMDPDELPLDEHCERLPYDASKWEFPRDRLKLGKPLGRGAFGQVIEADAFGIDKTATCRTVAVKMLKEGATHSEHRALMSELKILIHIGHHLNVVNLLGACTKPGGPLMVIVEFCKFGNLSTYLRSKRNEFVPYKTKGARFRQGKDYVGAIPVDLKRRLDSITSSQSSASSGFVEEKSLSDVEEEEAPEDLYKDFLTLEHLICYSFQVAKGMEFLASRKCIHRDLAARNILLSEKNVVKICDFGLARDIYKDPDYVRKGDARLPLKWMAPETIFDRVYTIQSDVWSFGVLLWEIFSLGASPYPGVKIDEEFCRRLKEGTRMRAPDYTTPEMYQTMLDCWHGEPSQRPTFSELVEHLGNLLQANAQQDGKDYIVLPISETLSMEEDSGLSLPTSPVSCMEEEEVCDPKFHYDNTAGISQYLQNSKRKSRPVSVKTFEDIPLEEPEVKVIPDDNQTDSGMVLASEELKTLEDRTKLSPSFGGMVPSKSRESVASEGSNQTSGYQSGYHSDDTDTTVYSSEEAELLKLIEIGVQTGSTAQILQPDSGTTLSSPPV

[37] = test system: NCI-H522; assay: Antitumor activity against human NCI-H522 cells xenografted in sc dosed mouse assessed as reduction in cell viability administered daily for 4 days starting from 3 to 4 days post implantation measured post last dose by MTT based in-vivo hollow fiber assay; format: functional, organism-based
[38] = test system: UACC-62; assay: Antitumor activity against human UACC62 cells xenografted in ip dosed mouse assessed as reduction in cell viability administered daily for 4 days starting from 3 to 4 days post implantation measured post last dose by MTT based in-vivo hollow fiber assay; format: functional, organism-based
[39] = target: T2, Vascular endothelial growth factor receptor 2; format: cell-based
[40] = test system: SW-620; assay: Antitumor activity against human SW620 cells xenografted in sc dosed mouse assessed as reduction in cell viability administered daily for 4 days starting from 3 to 4 days post implantation measured post last dose by MTT based in-vivo hollow fiber assay; format: functional, organism-based
[41] = test system: A-431; assay: Cytotoxicity against human A431 cells over-expressing EGFR; format: functional, cell-based
[42] = test system: Chorioallantoic membrane; assay: Antiangiogenic activity in Leghorn chicken embryo chorioallantoic membrane after 40 hrs by microscopic analysis; format: functional, tissue-based; details: Gallus gallus
[43] = test system: SK-OV-3; assay: Antiproliferative activity against human SKOV3 cells after 72 hrs by sulforhodamine B assay; format: functional, cell-based; details: SK-OV-3, 72 h
[44] = Resistance index, ratio of IC50 for human HeLa cells to IC50 for human wild-type Hela-beta3 cells; format: functional
[45] = species on record: Bos taurus; assay: Inhibition of [3H]colchicine binding to bovine brain tubulin at 5 uM measured after 10 mins relative to control
[46] = Resistance index, ratio of IC50 for human SKOV3-MDR1-M6/6 cells to IC50 for human SKOV3 cells; format: functional
[47] = species on record: Bos taurus; assay: Inhibition of [3H]colchicine binding to bovine brain tubulin at 1 uM measured after 10 mins relative to control
[48] = test system: HeLa; assay: Antiproliferative activity against human HeLa cells after 72 hrs by sulforhodamine B assay; format: functional, cell-based
[49] = Inhibition of bovine brain tubulin assembly pretreated for 15 mins followed by GTP addition by spectrophotometric method; design: species or system Bos taurus
[50] = test system: A10; assay: Induction of microtubule depolymerization in rat A10 cells after 18 hrs by indirect immunofluorescence method; format: functional, cell-based; details: A10, 18 h
[51] = Antiproliferative activity against human SKOV3-MDR1-M6/6 cells after 72 hrs by sulforhodamine B assay; format: functional; details: SKOV3-MDR1-M6/6, 72 h
[52] = Antiproliferative activity against human wild-type Hela-beta3 cells after 72 hrs by sulforhodamine B assay; format: functional
[53] = test system: MDA-MB-435; assay: Antiproliferative activity against human MDA-MB-435 cells after 72 hrs by sulforhodamine B assay; format: functional, cell-based; details: MDA-MB-435, 72 h

SMILES: COc1ccc(N(C)c2ncnc3occ(C)c23)cc1
Activity [1]: Active
Activity [2]: Active
Activity [3]: Toxic
Activity [4]: inactive
Activity [5]: Active
Ratio IC50 [6]: 7
T/C [7]: 71%
Activity [8]: Active
Activity [9]: Active
Activity [10]: Active
Activity [11]: Active
Activity [12]: 25 - 50%
Activity [13]: Active
Activity [14]: Toxic
T/C [15]: 47%
Activity [16]: Active
Activity [17]: Active
Activity [18]: Active
IC50 [19]: 0.0155 µM
Activity [20]: Active
MSD [21]: 15 days
Activity [22]: Active
Activity [23]: 25 - 50%
Activity [24]: Active
IC50 [25]: 0.0123 µM
Activity [26]: 25 - 50%
T/C [27]: 38%
Activity [28]: Active
Activity [29]: Active
Activity [30]: Active
Activity [31]: Active
Activity [32]: Active
Activity [33]: Active
Activity [34]: Active
Activity [35]: inactive
Ratio IC50 [36]: 2
Activity [37]: Active
Activity [38]: Active
IC50 [39]: 0.0093 µM
Activity [40]: Active
IC50 [41]: 0.0051 µM
IC50 [42]: 0.08 µM

IC50 [43]: 0.07 µM
inhibition [45]: 86%
inhibition [47]: 59%
IC50 [48]: 0.058 µM
IC50 [49]: 1.1 µM
IC50 [19]: 0.0031 µM
EC50 [50]: 0.14 µM
IC50 [25]: 0.063 µM
IC50 [39]: 0.0156 µM
IC50 [53]: 0.044 µM
SMILES: Cc1coc2ncnc(N(C)c3ccc(N(C)C)cc3)c12
Ratio IC50 [44]: 1
Ratio IC50 [46]: 1.3
IC50 [51]: 0.091 µM
IC50 [52]: 0.06 µM
IC50 [41]: 0.001 µM
IC50 [42]: 0.653 µM

IC50 [19]: > 0.2 µM
EC50 [50]: > 10 µM
IC50 [25]: > 0.2 µM
IC50 [39]: > 0.2 µM
SMILES: Cc1coc2ncnc(Nc3ccc(N(C)C)cc3)c12

IC50 [19]: 0.0072 µM
IC50 [25]: 0.0622 µM
IC50 [39]: 0.0136 µM
SMILES: CSc1ccc(N(C)c2ncnc3occ(C)c23)cc1
IC50 [41]: 0.0029 µM
IC50 [42]: 0.52 µM
